Like-named read-outs stand apart in the source and are kept apart here.

Experiment [1] has as its system WHCO5 oesophageal cancer cell line. Put plainly: MTT assay for cell viability, IC50 determination. The format is cell-based, human. The following applies: Homo sapiens, compound in salt form. The procedure:
(§1) Cells were plated in 96-well plates and treated with varying concentrations of a test compound for 48 hours, after which MTT dye, 3-(4,5-dimethylthiazol-2-yl)-2,5-diphenyltetrazolium bromide (Sigma), was added, and crystals solubilised 4 hours later using Solubilisation Reagent (10% SLS in 0.01 M HCl). Absorbencies were measured at 595 nm the following day using a BioTek microplate spectrophotometer (Winooski, Vt., USA) and IC50 curves were generated using GraphPad Prism.
In general terms: Tetrazolium dyes change colour on reduction, which living cells bring about.

Experiment [2] relates to WI38 non-cancer cell line. The experiment in a line: MTT assay for cell viability, IC50 determination. The following applies: Homo sapiens, WI-38; WI38; compound in salt form. The format is cell-based. On the procedure:
as §1

In experiment [3] the test system is HeLa cervical cancer cell line. Put plainly: MTT assay for cell viability, IC50 determination. The experiment is classed as cell-based. The settings on record: Homo sapiens, HeLa, read-out: IC50. The procedure: as §1
Experiment [4] deals with DMB normal skin fibroblasts (non-cancer). Put plainly: MTT assay for cell viability, IC50 determination. The format is cell-based. The following applies: Skin fibroblast; DMB; compound in salt form. On the procedure:
as §1

The subject of experiment [5] is EPC2 (EPC2-hTERT normal immortalised oesophageal epithelial cells). The experiment in a line: MTT assay for cell viability, IC50 determination. The format is cell-based. The settings on record: Homo sapiens, compound in salt form. The procedure:
as §1

Experiment [6] relates to MCF7 breast cancer cell line. Put plainly: MTT assay for cell viability, IC50 determination. The experiment is classed as cell-based. The settings on record: Homo sapiens, compound in salt form. The procedure:
as §1

Experiment [7] concerns CaSki cervical cancer cell line. Put plainly: MTT assay for cell viability, IC50 determination. The format is cell-based. The settings on record: Homo sapiens, Ca-Ski, read-out: IC50. On the procedure: as §1
Experiment [8] relates to SVWI38 transformed cell line. Put plainly: MTT assay for cell viability, IC50 determination. The format is cell-based. The following applies: SVWI38; compound in salt form. The procedure:
as §1

For experiment [9], the system named is MDA-MB-231 breast cancer cell line. The experiment in a line: MTT assay for cell viability, IC50 determination. The format is cell-based. The following applies: Homo sapiens, compound in salt form. On the procedure: as §1
The nature of experiment [10]: MTT assay for cell viability, IC50 determination. The experiment is classed as cell-based. The settings on record: Homo sapiens, MCF-12A; MCF12A; compound in salt form. The procedure: as §1
Experiment [11] deals with KYSE150 oesophageal cancer cell line. The experiment in a line: MTT assay for cell viability, IC50 determination. The format is cell-based. The settings on record: Homo sapiens, KYSE-150; Kyse150; compound in salt form. On the procedure:
as §1

The subject of experiment [12] is p65 nuclear import (Kpnβ1 cargo protein). The experiment in a line: Percentage of nuclear and cytoplasmic p65 (FIG. 4). The experiment is classed as cell-based.
The test system of experiment [13] is NFAT transcriptional activity in NFAT-transfected HeLa cells. Put plainly: NFAT luciferase reporter assay. The format is cell-based. The settings on record: stimulated with TPA and ionomycin (FIGS. 16-20). On the procedure: To assay for NFAT luciferase activity, 30 000 HeLa cells were plated per well in 24-well plates, and transfected with 50 ng GFP-NFAT plasmid (Addgene plasmid #24219, gift of Jerry Crabtree (Beals C R, Clipstone N A, Ho S N, Crabtree G R. Nuclear localization of NF-ATc by a calcineurin-dependent, cyclosporin-sensitive intramolecular interaction. Genes Dev 1997 Apr. 1; 11(7):824-34)), 50 ng NFAT-luciferase (Addgene plasmid #10959, gift of Toren Finkel (Ichida M, Finkel T. Ras regulates NFAT3 activity in cardiac myocytes. J Biol Chem 2001 Feb. 2; 276(5):3524-30)), and 5 ng pRL-TK, using 0.4 μl Genecellin™ Transfection Reagent (Celtic Molecular Diagnostics, South Africa). The NFAT-luciferase reporter plasmid contains three tandem repeats of a 30 bp fragment of the IL-2 promoter known to bind NFAT. The following day cells were treated with 10 or 15 μM Compound A and after an overnight incubation, stimulated with 100 nM TPA (Sigma) and 1.3 μM Ionomycin (Santa Cruz Biotechnology, Santa Cruz, Calif., USA) for 5 hours, following which luciferase activity was measured.
An assay for nuclear NFAT following ionomycin and Compound A treatment was carried out, using an NFAT-luciferase reporter that is activated by nuclear NFAT. The phorbol ester TPA was used to co-stimulate NFAT, as it has been shown previously that TPA and ionomycin elicit synergistic stimulation of NFAT luciferase activity (Northrop J P, Ullman K S, Crabtree G R. Characterization of the nuclear and cytoplasmic components of the lymphoid-specific nuclear factor of activated T cells (NF-AT) complex. J Biol Chem 1993 Feb. 5; 268(4):2917-23).
Background: Reporter assays use an easily measured gene product as a stand-in for the process of interest.

Experiment [14] deals with HeLa cancer cells and FG0 non-cancer cells. The experiment in a line: Cell proliferation monitored using the MTT assay (FIGS. 6 and 7). The format is cell-based. The following applies: increasing concentrations; HeLa and FG0 (FIGS. 6 and 7).
The test system of experiment [15] is PARP cleavage in CaSki cells. The experiment in a line: PARP cleavage analysis by Western Blot. The experiment is classed as cell-based. The following applies: IC50 and twice the IC50 (FIG. 5), varying concentrations 12 hours (FIG. 26). The procedure:
CaSki cells were treated with varying concentrations of Compound A for 12 hours, following which cells and cell floaters were harvested using RIPA buffer (10 mM Tris-Cl, pH 7.4, 150 mM NaCl, 1% sodium deoxycholate, 0.1% SDS, 1% Triton X-100, 1× complete protease inhibitor cocktail (Roche, Mannheim, Germany)) and Western Blot analysis performed, using a rabbit anti-Parp1/2 (H-250) antibody (sc-7150).
Background: Immunoblotting shows a protein as a band on a membrane.

The test system of experiment [16] is FG0 normal skin fibroblasts (non-cancer). Put plainly: MTT assay for cell viability, IC50 determination. The experiment is classed as cell-based. The settings on record: Skin fibroblast, 48 hours. On the procedure: as §1
The subject of another experiment is cancer cell lines. Put plainly: MTT cell viability, summary statements over panels of cancer cell lines. The format is cell-based. The following applies: CaSki and HeLa (Tables 2 and 3); read-out: IC50 values (cancer cell-killing effects). On the procedure: as §1

Consider `Cc1cccc(N[C@@H](c2ccc(N(C)C)cc2)c2ccc3ccc(C)nc3c2O)n1` [Compound IX, 7-[(4-dimethylaminophenyl)-[(6-methyl-2-pyridyl)amino]methyl]-2-methyl-quinolin-8-ol], for which the IC50 amounted to 22.4 µM in experiment [1]; 20.8 µM in experiment [2]; 12.3 µM in [3] (compound in salt form); 40.9 µM in experiment [4]; 5.78 µM in experiment [5]; 50.2 µM in experiment [6]. In addition, the IC50 in experiment [7] (48 h, MTT) was determined as 26.6 µM; in experiment [7] (compound in salt form), 26.6 µM; in [8], 15.3 µM; in experiment [9], 10.4 µM; in experiment [10] it was 27.8 µM; in experiment [11], 9.08 µM.

For `CNC(=O)[C@@H]1C[C@H](NCc2ccc(OC)c3ccccc23)CN1Cc1ccccc1` [Compound III, (2S,4S)-1-benzyl-4-{[(4-methoxynaphthalen-1-yl)methyl]amino}-N-methylpyrrolidine-2-carboxamide], in experiment [12], the “nuclear import of Kpnβ1 cargo protein (percentage of nuclear p65 relative to cytoplasmic p65)” value is listed as “inhibit the nuclear import of Kpnβ1 cargo protein”. The “NFAT activation (NFAT-luciferase reporter)” value in experiment [13] is “significantly diminished NFAT activation”. For the same molecule, the cell proliferation entry in experiment [14] is “inhibit cell proliferation”. In addition, the “PARP cleavage as an indicator of apoptosis” value in experiment [15] was “induce cancer cell death via apoptosis”. Further, the IC50 in experiment [16] was 44.9 µM; in experiment [3] (48 h, 48 hours, MTT) it was 19.9 µM; in experiment [7] (48 h, MTT), 34.1 µM; in the experiment on cancer cell lines it was under 50 µM.

`Cc1ccc(OC[C@@H](O)CNCc2ccc3c(c2)OCO3)cc1C` [Compound XIII, 1-(benzo[1,3]dioxol-5-ylmethylamino)-3-(3,4-dimethylphenoxy)-propan-2-ol]: the IC50 in experiment [1] is 40.1 µM; in experiment [2], 36.2 µM; in experiment [3] (compound in salt form), 53.6 µM; in experiment [4], 93 µM; in experiment [5], 34.6 µM; in experiment [6], 44.5 µM. The IC50 was determined as 39.5 µM in [7] (48 h, MTT); 39.5 µM in experiment [7] (compound in salt form); 42.1 µM in [8]; 33 µM in experiment [9]; 49.3 µM in [10]; 98.4 µM in [11].

Turning to `Cc1csc2nc(CNCc3cc4cc5c(cc4n(CC4CCCCC4)c3=O)CCC5)cn12` [Compound X, 1-(cyclohexylmethyl)-3-[[(3-methylimidazo[2,1-b]thiazol-6-yl)methylamino]methyl]-7,8-dihydro-6H-cyclopenta[g]quinolin-2-one], the IC50 turned out to be 20 µM in experiment [1]; 39.4 µM in [2]; 21.5 µM in [3] (compound in salt form); 69.3 µM in experiment [4]; 9.37 µM in [5]; 23.7 µM in experiment [6]. Besides, the IC50 is 26.7 µM in experiment [7] (48 h, MTT); 26.7 µM in experiment [7] (compound in salt form); 33.5 µM in [8]; 22.1 µM in [9]; 11.7 µM in experiment [10]; 32.2 µM in experiment [11].

As to `CC(C)Cc1ccc(CNCc2cccnc2N2CCCN(C)CC2)s1` [Compound XII, 1-(5-isobutyl-2-thienyl)-N-[[2-(4-methyl-1,4-diazepan-1-yl)-3-pyridyl]methyl]methanamine], the IC50 in experiment [1] was determined as 20.3 µM; in experiment [2] it was 33.8 µM; in [3] (compound in salt form), 23.1 µM; in [4] it was 57 µM; in experiment [5], 41.6 µM; in experiment [6], 44.9 µM. For the same molecule, the IC50 in experiment [7] (48 h, MTT) is 27.4 µM; in experiment [7] (compound in salt form), 27.4 µM; in [8] it was 31.3 µM; in experiment [9], 30 µM; in experiment [10], 34.1 µM; in [11], 25.5 µM.

`Cc1cccc(CN2CCOc3c(cc(-c4ccc(C)s4)cc3OCC3CCCN(C)C3)C2)n1` (stereo not shown) [Compound II, 9-[(1-methylpiperidin-3-yl)methoxy]-4-[(6-methylpyridin-2-yl)methyl]-7-(5-methylthiophen-2-yl)-3,5-dihydro-2H-1,4-benzoxazepine]: the “nuclear import of Kpnβ1 cargo protein (percentage of nuclear p65 relative to cytoplasmic p65)” value in experiment [12] is “inhibit the nuclear import of Kpnβ1 cargo protein”. Besides, the “NFAT activation (NFAT-luciferase reporter)” value in experiment [13] was “significantly diminished NFAT activation”. For the same molecule, the cell proliferation result in experiment [14] was “inhibit cell proliferation”. Also, in experiment [15], the “PARP cleavage as an indicator of apoptosis” value was “induce cancer cell death via apoptosis”. Moreover, the IC50 in [16] is 17.2 µM; in experiment [3] (48 h, 48 hours, MTT), 14.4 µM; in experiment [7] (48 h, MTT) it was 11.4 µM; in the experiment on cancer cell lines it was under 50 µM.

What is called IC50 is the concentration that inhibits the measured activity by half.

These data come from patent publication US10220033B2, “Substituted benzoxazepine for cancer therapy” (University of Cape Town, priority 2014, dated 2019).
